Measurements as given in ChEMBL document CHEMBL4732183, “Synthesis and evaluation of novel cyclopentane urea FPR2 agonists and their potential application in the treatment of cardiovascular inflammation” (Eur J Med Chem, 2021).

Tests used:
[1] = Distribution coefficient between octanol and PBS, log D of compound in pH 7.4 at 100 uM incubated for 12 hrs by LC-MS/MS analysis; format: physicochemical
[2] = Metabolic stability in human liver microsomes assessed as half life at 1 uM incubated for 30 mins by LC-MS/MS analysis; format: ADME, Microsome
[3] = Metabolic stability in mouse liver microsomes assessed as half life at 1 uM incubated for 30 mins by LC-MS/MS analysis; format: ADME, Microsome
[4] = AUC (0 to infinity) in C57BL/6 mouse at 10 mg/kg, ip measured upto 24 hrs; format: ADME, organism-based; parameters: route intraperitoneal, dose 10 mg/kg, time <=24; details: in vivo
[5] = MRT (0 to last) in C57BL/6 mouse at 10 mg/kg, ip measured upto 24 hrs; format: ADME, organism-based; details: in vivo
[6] = Cmax in C57BL/6 mouse at 10 mg/kg, ip measured upto 24 hrs; format: ADME, organism-based; parameters: route intraperitoneal, dose 10 mg/kg, time <=24; details: in vivo
[7] = Half life in C57BL/6 mouse at 10 mg/kg, ip measured upto 24 hrs; format: ADME, organism-based; details: in vivo
[8] = Tmax in C57BL/6 mouse at 10 mg/kg, ip measured upto 24 hrs; format: ADME, organism-based; details: in vivo
[9] = AUC (0 to last) in C57BL/6 mouse at 10 mg/kg, ip measured upto 24 hrs; format: ADME, organism-based; parameters: route intraperitoneal, dose 10 mg/kg, time <=24; details: in vivo
[10] = AUC extrapolated in C57BL/6 mouse at 10 mg/kg, ip measured upto 24 hrs; format: ADME, organism-based; details: in vivo

Row | Structure (SMILES) | logD at 12 h, 100 µM [1] | half-life at 1 µM [2] [h] | half-life at 1 µM [3] [h] | other results
1 | O=C(Nc1ccc(Br)cc1)NC1(C(=O)Nc2ccc(Cl)nc2)CCCC1 | 4.4 | 0.867 | 0.533 | –
2 | O=C(Nc1ccc(Br)cc1)NC1(C(=O)NCc2nn[nH]n2)CCCC1 | 1.1 | 8.67 | 6.98 | –
3 | O=C(Nc1ccc(Br)cc1)NC(C(=O)NC1COC1)C1CCCC1 (configuration not stated) | 4.3 | > 6.67 | > 6.67 | –
4 | O=C(Nc1ccc(Br)cc1)NC(C(=O)NC1CCOCC1)C1CCCC1 (configuration not stated) | > 4 | 3.45 | 1.73 | –
5 | Cc1cncc(NC(=O)C2(NC(=O)Nc3ccc(Br)cc3)CCCC2)c1 | 3.7 | – | – | –
6 | CC(C)n1cc(NC(=O)C2(NC(=O)Nc3ccc(Br)cc3)CCCC2)cn1 | 4.2 | 2.17 | 1.5 | –
7 | O=C(Nc1ccc(Br)cc1)NC(C(=O)NC1CNC1)C1CCCC1 (configuration not stated) | 1.6 | – | – | –
8 | CN1CCC(NC(=O)C2(NC(=O)Nc3ccc(Br)cc3)CCCC2)CC1 | 1.2 | 2.62 | 3.23 | –
9 | Cc1nn(C)cc1NC(=O)C1(NC(=O)Nc2ccc(Br)cc2)CCCC1 | 3.1 | 2.6 | 3.78 | –
10 | CN1CCC(NC(=O)C(NC(=O)Nc2ccc(Br)cc2)C2CCCC2)CC1 (configuration not stated) | 2.5 | 1.83 | 7.95 | –
11 | O=C(Nc1ccc(Br)cc1)NC(C(=O)NCC1CCCO1)C1CCCC1 (configuration not stated) | 4.7 | 0.217 | 0.417 | –

Further lines, with some results ahead:

Row | logD at 12 h, 100 µM [1] | half-life at 1 µM [2] [h] | half-life at 1 µM [3] [h] | Structure (SMILES) | other results
12 | > 4 | 1.33 | 0.683 | O=C(Nc1ccc(Br)cc1)NC(C(=O)Nc1cccnc1)C1CC1 (configuration not stated) | –
13 | 4.7 | 3.13 | 1.5 | O=C(Nc1ccc(Br)cc1)NC(C(=O)Nc1cccnc1)C1CCOCC1 (configuration not stated) | –
14 | > 4 | – | – | Cc1nn(C)cc1NC(=O)C(NC(=O)Nc1ccc(Br)cc1)C1CCCC1 (configuration not stated) | –
15 | > 4 | – | – | CC(C)n1cc(NC(=O)C(NC(=O)Nc2ccc(Br)cc2)C2CCCC2)cn1 (configuration not stated) | –
16 | > 4 | 1.38 | 0.55 | O=C(Nc1ccc(Br)cc1)NC(C(=O)Nc1cccnc1)C1CCCC1 (configuration not stated) | AUC(0-inf) [4]: 69 µg·h/mL; MRT last at 24 h [5]: 2.41 h; Cmax [6]: 31.9 µg/mL; half-life [7]: 2.08 h; Tmax [8]: 0.5 h; AUC(0-t) at 24 h [9]: 69 µg·h/mL; %AUCextra [10]: 0.02%
17 | > 4 | 0.267 | 0.183 | O=C(Nc1ccc(Br)cc1)NC(C(=O)Nc1cccnn1)C1CCCC1 (configuration not stated) | –
18 | 3.6 | 1.87 | 0.367 | O=C(CNC(=O)Nc1ccc(Br)cc1)Nc1cccnc1 | –
19 | 4.3 | 0.133 | 0.15 | O=C(Nc1ccc(Br)cc1)NC1(C(=O)Nc2ccccn2)CCCC1 | –
20 | 3.7 | 1.83 | 1.73 | O=C(Nc1ccc(Br)cc1)NC1(C(=O)Nc2cncnc2)CCCC1 | –
21 | 4.2 | 1.58 | 1.08 | CC(C)C[C@H](NC(=O)Nc1ccc(Br)cc1)C(=O)Nc1cccnc1 | –
22 | 4.1 | 1.8 | 1.32 | O=C(Nc1ccc(Br)cc1)NC1(C(=O)Nc2cccnc2)CCCC1 | –
23 | > 4 | 1.02 | 0.183 | O=C(Nc1ccc(Br)cc1)NC(CC1CCCCC1)C(=O)Nc1cccnc1 (configuration not stated) | –
24 | 3.9 | 1.67 | 0.6 | Cc1ccc(NC(=O)C2(NC(=O)Nc3ccc(Br)cc3)CCCC2)cn1 | –
25 | 4 | 3.07 | 1.53 | O=C(Nc1ccc(Br)cc1)NC(C(=O)Nc1cncnc1)C1CCCC1 (configuration not stated) | –
26 | > 4 | 1.52 | 0.733 | O=C(Nc1ccc(Br)cc1)N[C@@H](CC1CC1)C(=O)Nc1cccnc1 | –
